Laboratory results taken from paper PMC8536124 (International Journal of Molecular Sciences, 2021).

Legend:
Test in all cases: NCI-60 screening (SRB)
Format in all cases: cell-based, human
[1] = test system: HL-60(TB); settings: HL-60(TB), five-dose; for GI50 / CC50: Homo sapiens; for CC50: read-out: LC50 (the source's name)
[2] = test system: RPMI-8226; settings: five-dose; for GI50 / CC50: Homo sapiens; for CC50: read-out: LC50 (the source's name)
[3] = test system: A549/ATCC; settings: five-dose; for GI50 / CC50: Homo sapiens; for CC50: read-out: LC50 (the source's name)
[4] = test system: EKVX; settings: five-dose; for GI50 / LC50: Homo sapiens
[5] = test system: HOP-62; settings: five-dose; for GI50 / LC50: Homo sapiens
[6] = test system: HOP-92; settings: five-dose; for GI50 / CC50: Homo sapiens; for CC50: read-out: LC50 (the source's name)
[7] = test system: NCI-H23; settings: five-dose; for GI50 / CC50: Homo sapiens; for CC50: read-out: LC50 (the source's name)
[8] = test system: NCI-H522; settings: five-dose; for GI50 / CC50: Homo sapiens; for CC50: read-out: LC50 (the source's name)
[9] = test system: COLO 205; settings: five-dose; for GI50 / CC50: Homo sapiens; for CC50: read-out: LC50 (the source's name)
[10] = test system: HCT-15; settings: five-dose; for GI50 / CC50: Homo sapiens; for CC50: read-out: LC50 (the source's name)
[11] = test system: HT29; settings: for GI50 / CC50: Homo sapiens, HT-29, five-dose; for CC50: read-out: LC50 (the source's name); for TGI: five-dose
[12] = test system: KM12; settings: five-dose; for GI50 / CC50: Homo sapiens; for CC50: read-out: LC50 (the source's name)
[13] = test system: SF-295; settings: five-dose; for GI50 / CC50: Homo sapiens; for CC50: read-out: LC50 (the source's name)
[14] = test system: SF-539; settings: for GI50 / CC50: Homo sapiens; for GI50 / CC50 / TGI: SF-539, five-dose; for CC50: read-out: LC50 (the source's name)
[15] = test system: SNB-19; settings: five-dose; for GI50 / CC50: Homo sapiens; for CC50: read-out: LC50 (the source's name)
[16] = test system: MALME-3M; settings: for GI50 / CC50: Homo sapiens; for GI50 / CC50 / TGI: MALME-3M, five-dose; for CC50: read-out: LC50 (the source's name)
[17] = test system: SK-MEL-5; settings: for GI50 / CC50: Homo sapiens; for GI50 / CC50 / Growth % / TGI: SK-MEL-5; for GI50 / CC50 / TGI: five-dose; for CC50: read-out: LC50 (the source's name)
[18] = test system: IGROV1; settings: for GI50 / CC50: Homo sapiens, IGROV-1, five-dose; for CC50: read-out: LC50 (the source's name); for TGI: five-dose
[19] = test system: OVCAR-3; settings: five-dose; for GI50 / CC50: Homo sapiens; for CC50: read-out: LC50 (the source's name)
[20] = test system: OVCAR-4; settings: five-dose; for GI50 / CC50: Homo sapiens; for CC50: read-out: LC50 (the source's name)
[21] = test system: OVCAR-5; settings: five-dose; for GI50 / CC50: Homo sapiens; for CC50: read-out: LC50 (the source's name)
[22] = test system: NCI/ADR-RES; settings: five-dose; for GI50 / CC50: Homo sapiens; for CC50: read-out: LC50 (the source's name)
[23] = test system: A498; settings: A498, five-dose; for GI50 / CC50: Homo sapiens; for CC50: read-out: LC50 (the source's name)
[24] = test system: RXF 393; settings: five-dose; for GI50 / CC50: Homo sapiens; for CC50: read-out: LC50 (the source's name)
[25] = test system: SN12C; settings: five-dose; for GI50 / CC50: Homo sapiens; for CC50: read-out: LC50 (the source's name)
[26] = test system: TK-10; settings: five-dose; for GI50 / CC50: Homo sapiens; for CC50: read-out: LC50 (the source's name)
[27] = test system: UO-31; settings: five-dose; for GI50 / CC50: Homo sapiens; for CC50: read-out: LC50 (the source's name)
[28] = test system: HS 578T; settings: five-dose; for GI50 / CC50: Homo sapiens; for CC50: read-out: LC50 (the source's name)
[29] = test system: BT-549; settings: five-dose; for GI50 / CC50: Homo sapiens; for CC50: read-out: LC50 (the source's name)
[30] = test system: T-47D; settings: five-dose; for GI50 / LC50 (concentration killing 50% of cells): Homo sapiens, T47D

CCN1CCN(C(=O)[C@]23CC[C@@H](C)[C@H](C)[C@H]2C2=CC[C@@H]4[C@@]5(C)CCC(=O)C(C)(C)[C@@H]5CC[C@@]4(C)[C@]2(C)CC3)CC1 [Compound 4, N-(3-oxo-ursan-12-en-28-oyl)-ethylpiperazine]
TGI [1]: 2740 nM
GI50 [1]: 976 nM
CC50 [1]: > 50000 nM
GI50 [2]: 809 nM
CC50 [2]: 4900 nM
TGI [2]: 1990 nM
GI50 [3]: 1470 nM
CC50 [3]: 21800 nM
TGI [3]: 5980 nM
GI50 [4]: 916 nM
LC50 [4]: 8950 nM
TGI [4]: 2420 nM
GI50 [5]: 1380 nM
LC50 [5]: > 50000 nM
TGI [5]: 3090 nM
GI50 [6]: 713 nM
CC50 [6]: 8220 nM
TGI [6]: 2060 nM
GI50 [7]: 1080 nM
CC50 [7]: 11600 nM
TGI [7]: 2900 nM
GI50 [8]: 831 nM
CC50 [8]: 3690 nM
TGI [8]: 1750 nM
GI50 [9]: 1020 nM
CC50 [9]: 14500 nM
TGI [9]: 2370 nM
GI50 [10]: 977 nM
CC50 [10]: 7410 nM
TGI [10]: 2390 nM
GI50 [11]: 913 nM
CC50 [11]: 4590 nM
TGI [11]: 2050 nM
GI50 [12]: 1030 nM
CC50 [12]: 4790 nM
TGI [12]: 2220 nM
GI50 [13]: 820 nM
CC50 [13]: 3080 nM
TGI [13]: 1590 nM
GI50 [14]: 843 nM
CC50 [14]: 2800 nM
TGI [14]: 1540 nM
Growth % ([14]; SF-539 CNS cancer, 1 dose 10 µM): −97.21%
GI50 [15]: 849 nM
CC50 [15]: 3470 nM
TGI [15]: 1720 nM
GI50 [16]: 807 nM
CC50 [16]: 8840 nM
Growth % ([16]; MALME-3M (Melanoma), 1 dose 10 µM): −85.67%
TGI [16]: 1510 nM
GI50 [17]: 888 nM
CC50 [17]: 2890 nM
Growth % ([17]; 1 dose 10 µM): −84.06%
TGI [17]: 1600 nM
GI50 [18]: 1040 nM
CC50 [18]: 19100 nM
TGI [18]: 4850 nM
GI50 [19]: 1100 nM
CC50 [19]: 6520 nM
TGI [19]: 2440 nM
GI50 [20]: 1260 nM
CC50 [20]: 18000 nM
TGI [20]: 4740 nM
GI50 [21]: 907 nM
CC50 [21]: 3870 nM
TGI [21]: 1870 nM
GI50 [22]: 1080 nM
CC50 [22]: 18300 nM
TGI [22]: 3240 nM
TGI [23]: 2420 nM
GI50 [23]: 927 nM
CC50 [23]: 7920 nM
GI50 [24]: 822 nM
CC50 [24]: 3690 nM
TGI [24]: 1740 nM
GI50 [25]: 776 nM
CC50 [25]: 2810 nM
TGI [25]: 1480 nM
GI50 [26]: 1270 nM
CC50 [26]: 20300 nM
TGI [26]: 4140 nM
GI50 [27]: 726 nM
CC50 [27]: 2790 nM
TGI [27]: 1420 nM
GI50 [28]: 1070 nM
CC50 [28]: 26500 nM
TGI [28]: 2680 nM
GI50 [29]: 833 nM
CC50 [29]: 3000 nM
TGI [29]: 1580 nM
GI50 [30]: 1330 nM
LC50 (concentration killing 50% of cells) [30]: > 50000 nM
TGI [30]: 3890 nM

CCN1CCN(C(=O)[C@]23CCC(C)(C)C[C@H]2C2=CC[C@@H]4[C@@]5(C)C/C(=C/c6cccnc6)C(=O)C(C)(C)[C@@H]5CC[C@@]4(C)[C@]2(C)CC3)CC1 [Compound 6]
TGI [1]: 9020 nM
GI50 [1]: 2100 nM
CC50 [1]: > 100000 nM
GI50 [2]: 1030 nM
CC50 [2]: > 100000 nM
TGI [2]: 5200 nM
GI50 [3]: 2620 nM
CC50 [3]: > 100000 nM
TGI [3]: 13400 nM
GI50 [4]: 1900 nM
LC50 [4]: 43500 nM
TGI [4]: 6480 nM
GI50 [5]: 1880 nM
LC50 [5]: 7470 nM
TGI [5]: 3750 nM
GI50 [6]: 1060 nM
CC50 [6]: 10100 nM
TGI [6]: 3260 nM
GI50 [7]: 2100 nM
CC50 [7]: 27800 nM
TGI [7]: 5850 nM
GI50 [8]: 1610 nM
CC50 [8]: 8730 nM
TGI [8]: 3750 nM
GI50 [9]: 1890 nM
CC50 [9]: > 100000 nM
TGI [9]: 4740 nM
GI50 [10]: 1080 nM
CC50 [10]: 6790 nM
TGI [10]: 2710 nM
GI50 [11]: 1710 nM
CC50 [11]: 44500 nM
TGI [11]: 4670 nM
GI50 [12]: 1580 nM
CC50 [12]: 6750 nM
TGI [12]: 3260 nM
GI50 [13]: 1660 nM
CC50 [13]: 5970 nM
TGI [13]: 3150 nM
GI50 [14]: 1620 nM
CC50 [14]: 5550 nM
TGI [14]: 3000 nM
GI50 [15]: 1680 nM
CC50 [15]: 7120 nM
TGI [15]: 3460 nM
GI50 [16]: 1530 nM
CC50 [16]: 5540 nM
TGI [16]: 2910 nM
GI50 [17]: 1630 nM
CC50 [17]: 5540 nM
Growth % ([17]; 1 dose 10 µM): −91.03%
TGI [17]: 3000 nM
cell death ([17]; SK-MEL-5 melanoma, 1 dose 10 µM): 88.15%
GI50 [18]: 1910 nM
CC50 [18]: 9100 nM
TGI [18]: 4160 nM
GI50 [19]: 1510 nM
CC50 [19]: 5730 nM
TGI [19]: 2950 nM
GI50 [20]: 2170 nM
CC50 [20]: 47800 nM
TGI [20]: 7850 nM
GI50 [21]: 1560 nM
CC50 [21]: 7190 nM
TGI [21]: 3350 nM
GI50 [22]: 1570 nM
CC50 [22]: 7600 nM
TGI [22]: 3460 nM
TGI [23]: 3530 nM
GI50 [23]: 1660 nM
CC50 [23]: 7480 nM
GI50 [24]: 1420 nM
CC50 [24]: 5410 nM
TGI [24]: 2770 nM
GI50 [25]: 1220 nM
CC50 [25]: 5300 nM
TGI [25]: 2540 nM
GI50 [26]: 3860 nM
CC50 [26]: 54100 nM
TGI [26]: 15400 nM
GI50 [27]: 1350 nM
CC50 [27]: 5320 nM
TGI [27]: 2670 nM
GI50 [28]: 1830 nM
CC50 [28]: > 100000 nM
TGI [28]: 5370 nM
GI50 [29]: 1470 nM
CC50 [29]: 5660 nM
TGI [29]: 2880 nM
GI50 [30]: 2610 nM
LC50 (concentration killing 50% of cells) [30]: > 100000 nM
TGI [30]: 13700 nM
